In patent publication US20020155518A1, “Method of detecting compounds that control fungal diseases via effects on sporulation” (priority 2000, published 2002):

Tests used:
[1] = system: Aspergillus nidulans; assay: High-throughput screen for antisporulant activity, direct application with a replicator; type: cell-based; conditions: direct application to the medium using a replicator; 2 days at 37° C.
Text: For high-throughput screens, 245mm square bioassay dishes were poured and the medium containing the spore inoculum was allowed to solidify prior to application of test samples. Test samples, representing a broad spectrum of diverse chemical structures, were applied to the surface of the agar medium either by hand, using a replicator, or by robotic application. Each screen included a positive control treatment (e.g., 5 ∝g of one of the active benzophenones described elsewhere herein) that provided a positive response. Plates were incubated for 2 days at 37° C. Positives were initially identified by the presence of a discolored zone around the test sample. The positives were confirmed by retest followed by observation under a low power microscope (×20 magnification).
7000 compounds with diverse structures have been tested using the such a highthroughput screen. The compounds were tested by direct application to the medium using a replicator.

[2] = system: Aspergillus nidulans; assay: Sporulation assay, paper disc diffusion on PDA seeded with spores; type: cell-based, Aspergillus nidulans strain 003 (ATCC 36321)
[3] = system: Apple Scab (Venturia inaequalis); assay: Protectant foliar spray test against apple scab; type: in vivo; conditions: apple seedlings, foliar spray before inoculation; vs untreated inoculated controls; further: key: '+++' =high control; '++' =moderate control; '+' =low control; '0'=no control
[4] = system: Wheat Powdery Mildew (Blumeria [Erysiphe] graminis f.sp. tritici); conditions: in vivo; further: key: '+++' =high control; '++' =moderate control; '+' =low control; '0'=no control
[5] = system: Rice Blast (Magnaporthe grisea); type: in vivo; conditions: foliar spray before inoculation, vs untreated inoculated controls
[6] = system: Leptosphaeria (Septoria) nodorum; assay: Protectant foliar spray test against wheat L. nodorum blotch; type: in vivo; conditions: wheat, foliar spray before inoculation; vs untreated inoculated controls; further: key: '+++' =high control; '++' =moderate control; '+' =low control; '0'=no control

## CC(C)(C)CC(C)(C)c1ccc(C(=O)O)cc1 [A, 4-(1,1,3,3-tetramethylbutyl)benzoic acid]
[1]
  anti-sporulation activity: tested positive

## CC1=C(C(=O)Nc2ccccc2)SCCO1 [Carboxin]
[2]
  Active: No
  Inactive: Yes
  Moderately active: No

## C[C@@H]([C@H](N)C(=O)N[C@H](C(=O)O)[C@H]1O[C@@H](n2ccc(=O)[nH]c2=O)[C@H](O)[C@@H]1O)[C@H](O)c1ccc(O)cn1 [Nikkomycin]
[2]
  Active: No
  Inactive: Yes
  Moderately active: No

## COc1cc(C)c(C(=O)c2c(C)ccc3ccccc23)c(OCc2ccccc2F)c1OC [X, [3,4-dimethoxy-6-methyl-2-[(2-fluorophenyl)methoxy]phenyl](2-methyl-1-naphthalenyl)methanone]
[3]
  Level of Plant Disease Control, Apple Scab: 0
[4]
  Level of Plant Disease Control, Wheat Powdery Mildew: +++
[5]
  Level of Plant Disease Control, Rice Blast: 0
[6]
  Level of Plant Disease Control, Wheat L. nodorum: 0

## CCCOc1c(OC)cc(C)c(C(=O)c2c(OC)ccc(Br)c2C)c1OCc1ccccc1 [Y, (3-bromo-6-methoxy-2-methylphenyl)[4-methoxy-6-methyl-2-(phenylmethoxy)-3-propoxyphenyl]methanone]
[3]
  Level of Plant Disease Control, Apple Scab: 0
[4]
  Level of Plant Disease Control, Wheat Powdery Mildew: +++
[5]
  Level of Plant Disease Control, Rice Blast: 0
[6]
  Level of Plant Disease Control, Wheat L. nodorum: 0
